Laboratory results from ChEMBL document CHEMBL1201862, “PubChem BioAssay data set” (2004).
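Method: 48-hour compound exposure of cells in 96-well plates, five concentrations, linear interpolation of endpoints. GI50 is the concentration that inhibits growth by half.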 Activity calls are given as the source filed them. No stated cut-off is given here; in the data, active = GI50 up to about 1.1 µM and inactive = higher.

Tests used:
Experiment in all cases: NCI tumour cell line growth inhibition, 48 h
LOX IMVI = system: LOX IMVI
DLD-1 = system: DLD-1
CCRF-CEM = system: CCRF-CEM
RPMI-8226 = system: RPMI-8226
UACC-62 = system: UACC-62
M14 = system: M14
786-0 = system: 786-0
SN12C = system: SN12C
EKVX = system: EKVX
IGROV-1 = system: IGROV-1
HL-60 = system: HL-60
KM-20L2 = system: KM-20L2
SF-295 = system: SF-295
UACC-257 = system: UACC-257
DMS-114 = system: DMS-114
NCI-H460 = system: NCI-H460
MOLT-4 = system: MOLT-4
HOP-92 = system: HOP-92
SF-268 = system: SF-268
MDA-MB-435 = system: MDA-MB-435

SMILES	GI50 (LOX IMVI)	GI50 (DLD-1)	GI50 (CCRF-CEM)	GI50 (RPMI-8226)	GI50 (UACC-62)	GI50 (M14)	GI50 (786-0)	GI50 (SN12C)	GI50 (EKVX)	GI50 (IGROV-1)	GI50 (HL-60)	GI50 (KM-20L2)	GI50 (SF-295)	GI50 (UACC-257)	GI50 (DMS-114)	GI50 (NCI-H460)	GI50 (MOLT-4)	GI50 (HOP-92)	GI50 (SF-268)	GI50 (MDA-MB-435)
Cc1nc2ccccc2c(=O)n1/N=C(\N=N\c1ccccc1)c1ccccc1Cl	66.1 µM (inactive)	42.6 µM (inactive)	26.7 µM (inactive)	20.4 µM (inactive)	54.6 µM (inactive)	> 86.7 µM (inactive)	44.8 µM (inactive)	32.4 µM (inactive)	22.4 µM (inactive)	39.9 µM (inactive)	33.3 µM (inactive)	65.5 µM (inactive)	1.04 µM (active)	75 µM (inactive)	26 µM (inactive)	24 µM (inactive)	14.8 µM (inactive)	25 µM (inactive)	39 µM (inactive)	–
COc1ccc2c(c1)C(=O)Cc1ccccc1CC2	> 100 µM (inactive)	> 100 µM (inactive)	> 100 µM (inactive)	> 100 µM (inactive)	> 100 µM (inactive)	> 100 µM (inactive)	72.3 µM (inactive)	> 100 µM (inactive)	> 100 µM (inactive)	> 100 µM (inactive)	> 100 µM (inactive)	> 100 µM (inactive)	> 100 µM (inactive)	> 100 µM (inactive)	> 100 µM (inactive)	> 100 µM (inactive)	> 100 µM (inactive)	> 100 µM (inactive)	> 100 µM (inactive)	–
CC1=C(C)CC2(SC1)C(=O)c1ccccc1C2=O	> 100 µM (inactive)	> 100 µM (inactive)	93.8 µM (inactive)	> 100 µM (inactive)	> 100 µM (inactive)	> 100 µM (inactive)	> 100 µM (inactive)	> 100 µM (inactive)	–	> 100 µM (inactive)	> 100 µM (inactive)	> 100 µM (inactive)	> 100 µM (inactive)	> 100 µM (inactive)	> 100 µM (inactive)	> 100 µM (inactive)	> 100 µM (inactive)	65.8 µM (inactive)	> 100 µM (inactive)	–
O=C(O/N=C1/CCC/C1=C\c1ccccc1)c1ccc([N+](=O)[O-])cc1	> 100 µM (inactive)	> 100 µM (inactive)	> 100 µM (inactive)	> 100 µM (inactive)	> 100 µM (inactive)	> 100 µM (inactive)	> 100 µM (inactive)	> 100 µM (inactive)	> 100 µM (inactive)	> 100 µM (inactive)	> 100 µM (inactive)	> 100 µM (inactive)	> 100 µM (inactive)	> 100 µM (inactive)	> 100 µM (inactive)	> 100 µM (inactive)	> 100 µM (inactive)	> 100 µM (inactive)	71.6 µM (inactive)	–
Cc1cc2c(cc1C)[n+]([O-])c(C(=O)/C=C/c1ccccc1[N+](=O)[O-])c(C)[n+]2[O-]	71.1 µM (inactive)	77.6 µM (inactive)	> 100 µM (inactive)	> 73.3 µM (inactive)	40 µM (inactive)	74.6 µM (inactive)	33 µM (inactive)	69 µM (inactive)	58.2 µM (inactive)	> 80 µM (inactive)	89.5 µM (inactive)	> 100 µM (inactive)	36.3 µM (inactive)	75.9 µM (inactive)	17.8 µM (inactive)	71.6 µM (inactive)	> 100 µM (inactive)	34.4 µM (inactive)	34.2 µM (inactive)	> 100 µM (inactive)
CCOC(=O)C1Cc2c(ccc(OC)c2OC)C(=O)C1N (stereo unspecified)	> 100 µM (inactive)	> 100 µM (inactive)	> 100 µM (inactive)	> 100 µM (inactive)	> 100 µM (inactive)	> 100 µM (inactive)	> 100 µM (inactive)	> 100 µM (inactive)	21.5 µM (inactive)	> 100 µM (inactive)	> 100 µM (inactive)	> 100 µM (inactive)	> 100 µM (inactive)	> 100 µM (inactive)	> 100 µM (inactive)	> 100 µM (inactive)	91.4 µM (inactive)	> 100 µM (inactive)	–	–
O=C(CNC(=O)OCc1ccccc1)Oc1ccccc1	> 100 µM (inactive)	> 100 µM (inactive)	> 100 µM (inactive)	> 100 µM (inactive)	> 100 µM (inactive)	> 100 µM (inactive)	> 100 µM (inactive)	> 100 µM (inactive)	> 100 µM (inactive)	> 100 µM (inactive)	> 100 µM (inactive)	> 100 µM (inactive)	> 100 µM (inactive)	> 100 µM (inactive)	> 100 µM (inactive)	> 100 µM (inactive)	> 100 µM (inactive)	> 100 µM (inactive)	> 100 µM (inactive)	–
COc1ccc(/C=C\c2cc(OC)c(OC)c(OC)c2)cc1OC(=O)CC(N)C(=O)O (stereo unspecified)	0.00254 µM (active)	0.0041 µM (active)	0.000418 µM (active)	0.00148 µM (active)	0.00113 µM (active)	0.00247 µM (active)	0.0111 µM (active)	0.00521 µM (active)	34.8 µM (inactive)	0.0124 µM (active)	0.000899 µM (active)	3.7 µM (inactive)	0.0021 µM (active)	0.00171 µM (active)	0.00122 µM (active)	0.00219 µM (active)	0.00366 µM (active)	0.00052 µM (active)	0.00305 µM (active)	0.000146 µM (active)
COc1cc(-c2cc(CCC(=O)Nc3ccccc3[N+](=O)[O-])n(-c3ccc([N+](=O)[O-])cc3[N+](=O)[O-])n2)ccc1O	> 10 µM (inactive)	> 10 µM (inactive)	> 10 µM (inactive)	> 10 µM (inactive)	38.4 µM (inactive)	> 10 µM (inactive)	> 10 µM (inactive)	> 10 µM (inactive)	> 10 µM (inactive)	> 10 µM (inactive)	> 10 µM (inactive)	> 10 µM (inactive)	> 10 µM (inactive)	> 10 µM (inactive)	> 10 µM (inactive)	> 10 µM (inactive)	> 10 µM (inactive)	> 10 µM (inactive)	> 10 µM (inactive)	–
CC(CNCCCNCCNCCCNCO)[N+](=O)[O-] (stereo unspecified)	14.4 µM (inactive)	3.63 µM (inactive)	2.75 µM (inactive)	5.06 µM (inactive)	16 µM (inactive)	11.4 µM (inactive)	15.7 µM (inactive)	15.1 µM (inactive)	16 µM (inactive)	20.4 µM (inactive)	3.89 µM (inactive)	16.9 µM (inactive)	> 100 µM (inactive)	13.3 µM (inactive)	16.6 µM (inactive)	17.2 µM (inactive)	4.12 µM (inactive)	2.65 µM (inactive)	15.7 µM (inactive)	–
CN1C2(c3ccccc3)C(C(=O)c3ccccc3)=C(C(=O)c3ccccc3)C1(c1ccccc1)c1c(-c3ccccc3)sc(-c3ccccc3)c12	> 100 µM (inactive)	> 100 µM (inactive)	> 100 µM (inactive)	> 100 µM (inactive)	> 100 µM (inactive)	> 100 µM (inactive)	> 100 µM (inactive)	> 100 µM (inactive)	> 100 µM (inactive)	> 100 µM (inactive)	> 100 µM (inactive)	> 100 µM (inactive)	> 100 µM (inactive)	> 100 µM (inactive)	> 100 µM (inactive)	> 100 µM (inactive)	–	> 100 µM (inactive)	> 100 µM (inactive)	–
COc1ccccc1CCc1cc(OC)c(OC)c(OC)c1	40.3 µM (inactive)	61.5 µM (inactive)	31.8 µM (inactive)	20.2 µM (inactive)	65 µM (inactive)	47.6 µM (inactive)	74.3 µM (inactive)	61.9 µM (inactive)	49.3 µM (inactive)	49.9 µM (inactive)	11 µM (inactive)	55.8 µM (inactive)	51.4 µM (inactive)	45 µM (inactive)	41.6 µM (inactive)	44.1 µM (inactive)	23.9 µM (inactive)	26.8 µM (inactive)	65.9 µM (inactive)	–
Clc1ccc(SC(/C=C/NNC2=NN=C(c3ccccc3)C(c3ccccc3)N2)c2ccccc2)cc1 (stereo unspecified)	21.9 µM (inactive)	23.4 µM (inactive)	17.1 µM (inactive)	6.64 µM (inactive)	27.6 µM (inactive)	18.5 µM (inactive)	28.2 µM (inactive)	29.4 µM (inactive)	26.9 µM (inactive)	49.3 µM (inactive)	14.6 µM (inactive)	19.9 µM (inactive)	19.3 µM (inactive)	21.7 µM (inactive)	18.5 µM (inactive)	26.2 µM (inactive)	11.2 µM (inactive)	7.98 µM (inactive)	14.4 µM (inactive)	–
